From ChEMBL document CHEMBL2346628, “Real-time analysis of membrane permeabilizing effects of oleanane saponins” (Bioorg Med Chem, 2013)
Activity calls are given as the source filed them. No cut-off for these calls is given here.

Experiments:
[1] = Hemolytic activity against human RBC at 48 uM after 30 mins; assay type: ADME, cell-based; settings: erythrocyte, 0.5 h
[2] = Hemolytic activity against human RBC at 24 uM after 30 mins relative to control; assay type: ADME, cell-based, Erythrocyte; settings: red blood cells (RBC), read-out: Activity
[3] = Hemolytic activity against human RBC up to 12 uM after 30 mins; assay type: ADME, cell-based; settings: erythrocyte, 0.5 h
ECV-304 [4] = assay: Membrane permeabilization effect on lysosome of human ECV304 cells assessed as induction of membrane lysis at 3 to 48 uM after 1 hr by N-Acetylglucosaminidase release assay; assay type: functional, cell-based
ECV-304 [5] = assay: Membrane permeabilization effect on lysosome of human ECV304 cells assessed as induction of membrane lysis up to 6 uM after 1 hr by N-Acetylglucosaminidase release assay; assay type: functional, cell-based
ECV-304 [6] = assay: Membrane permeabilization effect on human ECV304 cells assessed as propidium iodide uptake at 3 to 48 uM after 1 hr by FACS flow cytometric analysis; assay type: functional, cell-based
ECV-304 [7] = assay: Membrane permeabilization on human ECV304 cells at 24 uM measured every 15 secs for 3 hrs by real time impedance-based plate reader analysis; assay type: functional, cell-based
[8] = Hemolytic activity against human RBC at 12 uM after 30 mins relative to control; assay type: ADME, cell-based, Erythrocyte; settings: red blood cells (RBC), read-out: Activity
[9] = Hemolytic activity against human RBC at 6 uM after 30 mins relative to control; assay type: ADME, cell-based, Erythrocyte; settings: red blood cells (RBC), read-out: Activity
[10] = Hemolytic activity against human RBC at 3 uM after 30 mins relative to control; assay type: ADME, cell-based, Erythrocyte; settings: red blood cells (RBC), read-out: Activity
ECV-304 [11] = assay: Membrane permeabilization effect on lysosome of human ECV304 cells at 6 to 48 uM after 1 hr by N-Acetylglucosaminidase release assay; assay type: functional, cell-based
ECV-304 [12] = assay: Membrane permeabilization effect on human ECV304 cells assessed as induction of membrane lysis at 48 uM after 1 hr; assay type: functional, cell-based
ECV-304 [13] = assay: Membrane permeabilization effect on human ECV304 cells assessed as increase in propidium iodide uptake at 24 uM after 1 hr by FACS flow cytometric analysis; assay type: functional, cell-based
ECV-304 [14] = assay: Membrane permeabilization effect on human ECV304 cells at 3 uM measured every 15 secs for 3 hrs by real time impedance-based plate reader analysis; assay type: functional, cell-based
[15] = Hemolytic activity against human RBC at 1.5 to 48 uM after 30 mins; assay type: ADME, cell-based; settings: erythrocyte, 0.5 h
ECV-304 [16] = assay: Membrane permeabilization effect on lysosome of human ECV304 cells up to 48 uM after 1 hr by N-Acetylglucosaminidase release assay; assay type: functional, cell-based
ECV-304 [17] = assay: Membrane permeabilization effect on human ECV304 cells assessed as propidium iodide uptake up to 48 uM after 1 hr by FACS flow cytometric analysis; assay type: functional, cell-based
ECV-304 [18] = assay: Membrane permeabilization effect on human ECV304 cells assessed as normalized cell index at 24 uM measured every 15 secs for 3 hrs by real time impedance-based plate reader analysis relative to control relative to control; assay type: functional
ECV-304 [19] = assay: Membrane permeabilization effect on human ECV304 cells assessed as normalized cell index at 12 uM measured every 15 secs for 3 hrs by real time impedance-based plate reader analysis relative to control; assay type: functional
ECV-304 [20] = assay: Membrane permeabilization effect on human ECV304 cells at 3 to 6 uM measured every 15 secs for 3 hrs by real time impedance-based plate reader analysis; assay type: functional, cell-based
ECV-304 [21] = assay: Membrane permeabilization effect on human ECV304 cells at 3 to 24 uM measured every 15 secs for 3 hrs by real time impedance-based plate reader analysis; assay type: functional, cell-based

## CCC(C)C(CC(O)CC(=O)O[C@H]1[C@@H](O)[C@@H](C)O[C@@H](OC(=O)[C@]23CCC(C)(C)C[C@H]2C2=CC[C@@H]4[C@@]5(C)CC[C@H](O[C@H]6O[C@H](C(=O)O)[C@@H](O)[C@H](O[C@@H]7OC[C@@H](O)[C@H](O)[C@H]7O)[C@H]6O[C@@H]6O[C@H](CO)[C@H](O)[C@H](O)[C@H]6O)[C@@](C)(C=O)[C@@H]5CC[C@@]4(C)[C@]2(C)C[C@H]3O)[C@@H]1O[C@@H]1O[C@@H](C)[C@H](O[C@@H]2OC[C@@H](O)[C@H](O[C@@H]3OCC(O)(O)[C@H]3O)[C@H]2O)[C@@H](O[C@@H]2O[C@H](CO)[C@@H](O)[C@H](O)[C@H]2O)[C@H]1O)OC(=O)CC(O)CC(O[C@@H]1O[C@@H](CO)[C@H](O)[C@H]1O[C@@H]1O[C@@H](C)[C@H](O)[C@@H](O)[C@H]1O)C(C)CC (stereo in doubt; form 2) [listing 1 of 2 here]
[1]
  Activity: Toxic
[2]
  hemolysis at 0.5 h, 24 µM: 61%
[3]
  Activity: Non-toxic

## CCC(C)C(CC(O)CC(=O)O[C@H]1[C@@H](O)[C@@H](C)O[C@@H](OC(=O)[C@]23CCC(C)(C)C[C@H]2C2=CC[C@@H]4[C@@]5(C)CC[C@H](O[C@H]6O[C@H](C(=O)O)[C@@H](O)[C@H](O[C@@H]7OC[C@@H](O)[C@H](O)[C@H]7O)[C@H]6O[C@@H]6O[C@H](CO)[C@H](O)[C@H](O)[C@H]6O)[C@@](C)(C=O)[C@@H]5CC[C@@]4(C)[C@]2(C)C[C@H]3O)[C@@H]1O[C@@H]1O[C@@H](C)[C@H](O[C@@H]2OC[C@@H](O)[C@H](O[C@@H]3OCC(O)(O)[C@H]3O)[C@H]2O)[C@@H](O[C@@H]2O[C@H](CO)[C@@H](O)[C@H](O)[C@H]2O)[C@H]1O)OC(=O)CC(O)CC(O[C@@H]1O[C@@H](CO)[C@H](O)[C@H]1O[C@@H]1O[C@@H](C)[C@H](O)[C@@H](O)[C@H]1O)C(C)CC (stereo in doubt; form 2) [listing 2 of 2 here]
ECV-304 [4]
  Activity: inactive
ECV-304 [5]
  Activity: inactive
ECV-304 [6]
  Activity: inactive
ECV-304 [7]
  Activity: inactive

## C[C@@H]1CC[C@@]2(OC1)O[C@H]1[C@@H](O)[C@H]3[C@@H]4CC[C@H]5C[C@@H](O[C@@H]6O[C@H](CO)[C@H](O[C@@H]7O[C@H](CO)C(O)[C@H](O[C@@H]8OC[C@@H](O)[C@H](O)[C@H]8O)[C@H]7O[C@@H]7O[C@H](CO)[C@H](O)[C@H](O[C@@H]8O[C@H](CO)[C@@H](O)[C@H](O)[C@H]8O)[C@H]7O)[C@H](O)[C@H]6O)[C@H](O)C[C@]5(C)[C@H]4CC[C@]3(C)[C@H]1[C@@H]2C (stereo partly drawn) [DIGITONIN]
[8]
  hemolysis at 0.5 h, 12 µM: > 80%
[9]
  hemolysis at 0.5 h, 6 µM: 68%
[10]
  hemolysis at 0.5 h, 3 µM: 22%
ECV-304 [5]
  Activity: inactive
ECV-304 [11]
  Activity: Active
ECV-304 [12]
  Activity: Active
ECV-304 [13]
  Activity: Active
ECV-304 [14]
  Activity: Active

## CC1(C)[C@@H](O[C@H]2O[C@H](C(=O)O)[C@@H](O)[C@H](O)[C@H]2O[C@@H]2O[C@H](C(=O)O)[C@@H](O)[C@H](O)[C@H]2O)CC[C@]2(C)[C@H]3C(=O)C=C4[C@@H]5C[C@@](C)(C(=O)O)CC[C@]5(C)CC[C@@]4(C)[C@]3(C)CC[C@@H]12 [GLYCYRRHIZIN]
[15]
  Activity: Non-toxic
ECV-304 [5]
  Activity: inactive
ECV-304 [16]
  Activity: inactive
ECV-304 [17]
  Activity: inactive
ECV-304 [18]
  Activity: inactive
ECV-304 [19]
  Activity: inactive
ECV-304 [20]
  Activity: inactive
ECV-304 [21]
  Activity: inactive
